Like-named read-outs stand apart in the source and are kept apart here. Values belong to the compound of their own block, whether it stands above or below them.
Key:
factor XIIIa [1] = biological target: T1, factor XIIIa (Homo sapiens, UniProt P00488); experiment: factor XIIIa inhibition (IC50); type: biochemical; conditions: ref [14], unpublished observations
T1 sequence (P00488 39-732 limits assumed): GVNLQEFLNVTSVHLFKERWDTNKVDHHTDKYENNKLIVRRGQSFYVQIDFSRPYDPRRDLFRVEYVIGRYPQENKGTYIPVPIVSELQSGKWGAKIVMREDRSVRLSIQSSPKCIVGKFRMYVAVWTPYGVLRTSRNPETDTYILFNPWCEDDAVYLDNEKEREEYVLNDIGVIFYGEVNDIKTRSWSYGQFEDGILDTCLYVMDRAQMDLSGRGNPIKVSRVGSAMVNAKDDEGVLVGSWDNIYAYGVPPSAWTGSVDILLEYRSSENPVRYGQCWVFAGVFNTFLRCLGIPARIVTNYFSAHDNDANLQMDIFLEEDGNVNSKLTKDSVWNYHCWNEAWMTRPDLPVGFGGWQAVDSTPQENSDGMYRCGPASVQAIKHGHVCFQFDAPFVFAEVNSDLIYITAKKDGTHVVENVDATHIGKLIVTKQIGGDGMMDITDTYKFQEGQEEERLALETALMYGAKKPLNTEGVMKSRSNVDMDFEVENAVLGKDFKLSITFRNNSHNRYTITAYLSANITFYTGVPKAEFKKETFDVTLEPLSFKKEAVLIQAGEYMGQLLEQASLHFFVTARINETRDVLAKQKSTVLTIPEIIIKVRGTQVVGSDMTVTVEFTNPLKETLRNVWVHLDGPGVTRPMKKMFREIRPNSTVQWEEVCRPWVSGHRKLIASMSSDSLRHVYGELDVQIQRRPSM

human blood clots = experiment: in vitro assay of fibrinolysis (human blood clot lysis); conditions: 250 μM compound, human whole blood clot, TPA; for fibrinogen (FITC-fibrinogen) release from clots: FIG. 2; for red blood cell release from the blood clots: absorbance 750 nm, FIG. 1
Method: A number of TGase inhibitors show promise for exploitation in therapeutic areas where TGase has been implicated. […] Compounds 1 and 3 were evaluated for stimulation of thrombolysis (human blood clot lysis) and associated release of embedded staphylococci using an in vitro assay of fibrinolysis as shown below.
Fresh human venous blood (1 ml) was collected by venepuncture in 13 mM citrate. After addition of Staphylococcus aureus NCTC 8325 (to 10^6 cfu/ml), tissue plasminogen activator (TPA, to 100 ng/ml) and FITC-labelled fibrinogen (to 10 μg/ml) aqueous solutions of compounds 1 or 3 (to 250 μM) or water (control), the blood was clotted by addition of CaCl2 (to 20 mM) and allowed to cross-link for 1 hr at 37° C. Blood clots were washed three times each in 1 ml sterile phosphate buffered saline (PBS), resuspended in 1 ml PBS containing 10 μg/ml TPA and incubated with shaking at 37° C. Samples of the clot suspending fluid were withdrawn at intervals and measured for red blood cell content (absorbance 750 nm), fibrinolysis (fluorescence) and release of Staphylococcus aureus (by viable counting).

factor XIIIa [2] = biological target: T1, factor XIIIa; conditions: Proof of Principle Studies, ref [10]; cited from earlier work
fibrin clot = experiment: stabilized fibrin clot formation; type: biochemical
thrombus = conditions: ref [11]; cited from earlier work
[3] = release of inhibitor from coated polyurethane catheter; type: physicochemical; conditions: polylactide-glycolide coating, phosphate buffered saline 37° C., over a 336 hour period, FIG. 4
Method: Catheter sections (2 cm, polyurethane Venflon, BD […]) were immersed in a solution of compound 3 (10 mg/ml), dissolved in polylactide-glycolide in dichloromethane (256 mg/ml) and allowed to dry in air. Individual sections were placed in 2 ml of phosphate buffered saline at 37° C. with constant shaking. Release of compound 3 was measured by assaying the phosphate buffered saline over a 336 hour period.

[4] = tested on: femoral artery thrombosis; conditions: ref [11]; cited from earlier work
[5] = biological target: T2, bovine epidermal transglutaminase (Bos taurus, UniProt A6QP57); conditions: Castelhano et al., Bioorg. Chem. (1988) 16, 335-340; cited from earlier work
T2 sequence (A6QP57 1-691): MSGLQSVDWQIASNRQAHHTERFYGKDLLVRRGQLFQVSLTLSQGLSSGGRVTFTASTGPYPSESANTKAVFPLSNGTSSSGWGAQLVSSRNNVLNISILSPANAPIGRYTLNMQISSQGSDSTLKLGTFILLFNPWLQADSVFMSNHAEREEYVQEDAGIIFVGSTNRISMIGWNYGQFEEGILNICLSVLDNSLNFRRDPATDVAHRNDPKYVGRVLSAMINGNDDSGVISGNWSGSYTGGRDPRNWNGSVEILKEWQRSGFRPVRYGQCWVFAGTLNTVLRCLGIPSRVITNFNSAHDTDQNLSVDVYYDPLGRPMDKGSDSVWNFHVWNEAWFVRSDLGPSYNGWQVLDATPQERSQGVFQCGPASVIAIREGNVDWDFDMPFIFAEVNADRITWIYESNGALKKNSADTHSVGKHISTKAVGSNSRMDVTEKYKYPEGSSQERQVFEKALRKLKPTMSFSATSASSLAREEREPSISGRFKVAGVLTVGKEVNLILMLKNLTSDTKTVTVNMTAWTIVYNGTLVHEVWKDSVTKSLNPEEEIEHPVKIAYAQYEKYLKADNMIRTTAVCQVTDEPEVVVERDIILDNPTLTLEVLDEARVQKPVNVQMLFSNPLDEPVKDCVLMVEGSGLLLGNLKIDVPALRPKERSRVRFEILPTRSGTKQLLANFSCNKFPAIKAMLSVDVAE

SMILES: C[S+](C)CC(=O)CC[C@H](NC(=O)[C@H](Cc1ccccc1)NC(=O)OCc1ccccc1)C(=O)O [Compound 1, N-benzyloxycarbonyl-L-phenylalanyl-6-dimethylsulfonium-5-oxo-L-norleucine]
IC50 (factor XIIIa [1]): 50 µM | fibrinogen (FITC-fibrinogen) release from clots (human blood clots): greatly increased | red blood cell release from the blood clots (human blood clots): increased | IC50 (factor XIIIa [2]): 30 µM | inhibition of stabilized fibrin clot formation (fibrin clot): inhibit stabilized fibrin clot formation

IC50 (factor XIIIa [1]): 10 µM
SMILES: C[S+](C)CC(=O)CC[C@H](NC(=O)[C@@H]1CCCN1C(=O)OCc1ccccc1)C(=O)O [Compound 2, N-Benzyloxycarbonyl-L-prolinyl-6-dimethylsulfonium-5-oxo-L-norleucine]

release of inhibitor from a coated catheter [3]: prolonged release
SMILES: CC(=O)CSc1n(C)cc[n+]1C [Compound 3]
fibrinogen (FITC-fibrinogen) release from clots (human blood clots): greatly increased | red blood cell release from the blood clots (human blood clots): increased | thrombolysis in vitro (thrombus): enhanced thrombolysis | thrombolysis in a rabbit model of femoral artery thrombosis [4]: enhanced thrombolysis | IC50 (factor XIIIa [2]): 50 µM

SMILES: O=C(N[C@@H](Cc1ccccc1)C(=O)NCC1CC(Br)=NO1)OCc1ccccc1 (stereo partly drawn) [(S)-1-[(3-Bromo-4,5-dihydro-isoxazol-5-ylmethyl)-carbamoyl]-2-phenyl-ethyl}-carbamic acid benzyl ester]
inhibition of bovine epidermal transglutaminase [5]: inhibitor
